The structures appear in SMILES notation.

A word on the IC50: it is the midpoint of a concentration-inhibition curve. High values mean lower potency, low ones higher potency.

Data set [1] deals with Sodium channel protein type 5 subunit alpha (Homo sapiens, UniProt Q14524). The data set can be described thus: Inhibition of human Nav1.5 by automated voltage clamp electrophysiology.
The nature of data set [2]: Intrinsic clearance in human liver microsomes. The data set is classed as ADME, Microsome. The conditions noted are these: read-out: CLH. In general terms: Liver microsomes are vesicles of endoplasmic reticulum, rich in cytochrome P450 enzymes.
The nature of data set [3]: Intrinsic clearance in mouse liver microsomes. The data set is classed as ADME, Microsome. The conditions noted are these: read-out: CLH.
A short description of data set [4]: Inhibition of human Nav1.5 VSD4 R1631A mutant by automated voltage clamp electrophysiology.

Sodium channel protein type 5 subunit alpha, sequence (Q14524 whole entry): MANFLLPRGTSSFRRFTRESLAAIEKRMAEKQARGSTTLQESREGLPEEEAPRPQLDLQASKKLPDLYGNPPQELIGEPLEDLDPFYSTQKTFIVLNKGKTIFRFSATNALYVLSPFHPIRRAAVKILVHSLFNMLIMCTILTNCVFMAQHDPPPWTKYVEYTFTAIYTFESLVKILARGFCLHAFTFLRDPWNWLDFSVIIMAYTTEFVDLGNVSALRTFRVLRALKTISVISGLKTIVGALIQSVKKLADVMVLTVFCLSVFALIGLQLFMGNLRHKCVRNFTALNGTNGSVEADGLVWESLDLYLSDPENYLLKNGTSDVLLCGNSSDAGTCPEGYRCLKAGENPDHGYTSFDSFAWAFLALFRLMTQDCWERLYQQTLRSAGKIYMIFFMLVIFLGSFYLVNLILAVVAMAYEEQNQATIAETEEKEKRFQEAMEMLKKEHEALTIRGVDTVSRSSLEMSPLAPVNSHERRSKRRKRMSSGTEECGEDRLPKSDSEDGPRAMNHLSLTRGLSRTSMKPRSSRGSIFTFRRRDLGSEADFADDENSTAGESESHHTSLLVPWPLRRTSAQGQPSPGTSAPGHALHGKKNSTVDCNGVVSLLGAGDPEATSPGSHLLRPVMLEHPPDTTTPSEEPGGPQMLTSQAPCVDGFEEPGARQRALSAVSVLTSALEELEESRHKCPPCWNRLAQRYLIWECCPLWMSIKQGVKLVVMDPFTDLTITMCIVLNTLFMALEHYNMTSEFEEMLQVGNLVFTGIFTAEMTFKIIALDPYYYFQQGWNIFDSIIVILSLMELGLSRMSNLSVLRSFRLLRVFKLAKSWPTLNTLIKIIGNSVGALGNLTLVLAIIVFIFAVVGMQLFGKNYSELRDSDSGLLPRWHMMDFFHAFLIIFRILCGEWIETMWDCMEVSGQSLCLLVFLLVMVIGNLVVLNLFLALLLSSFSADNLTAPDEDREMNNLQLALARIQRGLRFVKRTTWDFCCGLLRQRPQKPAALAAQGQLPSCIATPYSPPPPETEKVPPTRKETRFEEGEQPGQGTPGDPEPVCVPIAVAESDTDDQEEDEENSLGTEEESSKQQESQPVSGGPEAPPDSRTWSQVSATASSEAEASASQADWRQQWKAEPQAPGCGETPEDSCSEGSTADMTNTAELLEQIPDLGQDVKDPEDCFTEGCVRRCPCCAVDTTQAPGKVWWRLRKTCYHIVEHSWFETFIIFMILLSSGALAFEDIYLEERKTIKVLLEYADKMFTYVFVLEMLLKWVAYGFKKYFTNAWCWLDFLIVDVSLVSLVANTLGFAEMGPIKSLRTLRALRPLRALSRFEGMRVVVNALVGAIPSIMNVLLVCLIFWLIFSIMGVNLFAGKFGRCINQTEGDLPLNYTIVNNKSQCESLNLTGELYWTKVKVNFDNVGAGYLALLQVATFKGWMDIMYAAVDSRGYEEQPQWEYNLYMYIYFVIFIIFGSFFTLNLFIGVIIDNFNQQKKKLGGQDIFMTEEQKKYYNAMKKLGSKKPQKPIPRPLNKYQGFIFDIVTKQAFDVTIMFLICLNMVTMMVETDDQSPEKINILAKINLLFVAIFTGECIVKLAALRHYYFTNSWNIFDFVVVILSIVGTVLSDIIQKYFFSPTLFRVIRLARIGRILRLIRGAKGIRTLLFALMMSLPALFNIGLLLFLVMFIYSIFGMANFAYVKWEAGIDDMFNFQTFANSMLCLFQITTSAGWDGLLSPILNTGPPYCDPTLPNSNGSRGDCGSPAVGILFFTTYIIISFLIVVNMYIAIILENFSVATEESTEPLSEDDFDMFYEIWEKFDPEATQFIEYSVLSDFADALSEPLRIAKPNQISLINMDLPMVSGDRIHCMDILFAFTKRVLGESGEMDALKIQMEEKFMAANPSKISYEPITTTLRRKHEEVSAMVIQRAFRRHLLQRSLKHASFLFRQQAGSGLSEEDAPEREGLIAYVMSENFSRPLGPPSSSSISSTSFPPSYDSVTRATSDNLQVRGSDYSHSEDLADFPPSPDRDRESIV

In data set [1], `O=S(=O)(Nc1ncc(F)s1)c1cc(F)c(O[C@H]2CCN(CC(F)(F)F)C[C@@H]2c2ccccc2)cc1F` (racemic) registered an IC50 of 4650 nM.
On the same count and under the same terms, under `O=S(=O)(Nc1nncs1)c1cc(F)c(O[C@H]2CCN(CC(F)(F)F)C[C@@H]2c2ccccc2)cc1F` (racemic) stands 25100 nM.
Turning to `O=S(=O)(Nc1cccc(F)n1)c1cnc(O[C@H]2CCN(CC(F)(F)F)C[C@@H]2c2ccc(F)c(F)c2)c(F)c1` (racemic), the CLint scaled was found to be 8.4 mL/min/kg in data set [2] and 63 mL/min/kg in data set [3]. In data set [1], inhibition was half-maximal at 1550 nM (IC50).
`O=S(=O)(Nc1ccccn1)c1cc(F)c(O[C@H]2CCN(CC(F)(F)F)C[C@@H]2c2ccccc2)cc1F` (racemic) came in with an IC50 in data set [1] of 4320 nM.
On to `O=S(=O)(Nc1cccc(F)n1)c1cc(F)c(O[C@H]2CCN(CC(F)(F)F)C[C@@H]2c2cccc(F)c2)cc1F` (racemic), for which the results for the CLint scaled in data set [2] and in data set [3] were 13 mL/min/kg and 53 mL/min/kg, respectively. Besides, in data set [1], the IC50 was determined as 460 nM.
The matching figures for `O=S(=O)(Nc1cccc(F)n1)c1cc(F)c(O[C@H]2CCN(CC(F)(F)F)C[C@@H]2c2ccc(F)c(F)c2)c(F)c1` (racemic): 15 mL/min/kg, 65 mL/min/kg and 65 nM.
In data set [1], `O=S(=O)(Nc1cccc(C(F)(F)F)n1)c1cc(F)c(O[C@H]2CCN(CC(F)(F)F)C[C@@H]2c2ccccc2)cc1F` (racemic) yielded a half-inhibitory concentration (IC50) of 6330 nM.
In the case of `O=S(=O)(Nc1ccc(F)cn1)c1cc(F)c(O[C@H]2CCN(CC(F)(F)F)C[C@@H]2c2ccccc2)cc1F` (racemic), in data set [1], the midpoint of inhibition, the IC50, lay at 13200 nM.
As to `O=S(=O)(Nc1cccc(F)n1)c1cc(F)c(O[C@H]2CCN(CC(F)(F)F)C[C@@H]2c2ccc(F)cc2F)cc1F` (racemic), the CLint scaled in data set [2] stood at 13 mL/min/kg; in data set [3], 49 mL/min/kg. The compound further gave an IC50 in data set [1] of 470 nM.
In data set [1], `N#Cc1cccc([C@H]2CN(CC(F)(F)F)CC[C@@H]2Oc2cc(F)c(S(=O)(=O)Nc3cccc(F)n3)cc2F)c1` (racemic) gave a half-maximal inhibitory concentration (IC50) of 4580 nM.
Same read-out and setting: the result for `O=S(=O)(Nc1cccnn1)c1cc(F)c(O[C@H]2CCN(CC(F)(F)F)C[C@@H]2c2ccccc2)cc1F` (racemic) reads 25500 nM.
`O=S(=O)(Nc1cccc(F)n1)c1cc(F)c(O[C@H]2CCN(CC(F)(F)F)C[C@@H]2c2ccc(F)c(F)c2)cc1F` (racemic): the results for the CLint scaled in data set [2] and in data set [3] were 7.5 mL/min/kg and 49 mL/min/kg, respectively. Also, the IC50 in data set [1] was found to be 260 nM.
With `O=S(=O)(Nc1ncccc1F)c1cc(F)c(O[C@H]2CCN(CC(F)(F)F)C[C@@H]2c2ccccc2)cc1F` (racemic), the IC50 in data set [1] came out at 5040 nM.
For the compound `O=S(=O)(Nc1cccc(F)n1)c1cc(F)c(O[C@H]2CCN(CC(F)(F)F)C[C@@H]2c2ccc(F)c(F)c2)c(F)c1F` (racemic), the CLint scaled is 14 mL/min/kg in data set [2] and 65 mL/min/kg in data set [3]. Inhibition in data set [1] was half-maximal at 31 nM (IC50).
Compound `CS(=O)(=O)c1cccc([C@H]2CN(CC(F)(F)F)CC[C@@H]2Oc2cc(F)c(S(=O)(=O)Nc3cccc(F)n3)cc2F)c1` (racemic) had an IC50 in data set [1] greater than 30000 nM.
For `O=S(=O)(Nc1cccc(F)n1)c1cc(F)c(O[C@H]2CCN(CC(F)(F)F)C[C@@H]2c2ccc(F)cc2)cc1F` (racemic), the CLint scaled in data set [2] was 11 mL/min/kg; in data set [3] it was 62 mL/min/kg. The IC50 in data set [1] came to 610 nM.
In data set [1], `O=S(=O)(Nc1ncns1)c1cc(F)c(O[C@H]2CCN(CC(F)(F)F)C[C@@H]2c2ccccc2)cc1F` (racemic) registered a concentration for half-maximal inhibition (IC50) of 7830 nM.
Regarding `O=S(=O)(Nc1cscn1)c1cc(F)c(O[C@H]2CCN(CC(F)(F)F)C[C@@H]2c2ccccc2)cc1F` (racemic), the IC50 worked out at 1170 nM in data set [4] and 1180 nM in data set [1].
`O=S(=O)(Nc1cccc(Cl)n1)c1cc(F)c(O[C@H]2CCN(CC(F)(F)F)C[C@@H]2c2ccccc2)cc1F` (racemic): the IC50 in data set [1] was found to be 1100 nM.
Take `O=S(=O)(Nc1cc(F)ccn1)c1cc(F)c(O[C@H]2CCN(CC(F)(F)F)C[C@@H]2c2ccccc2)cc1F` (racemic): the midpoint of inhibition in data set [1], the IC50, lay at 1290 nM.
Take `O=S(=O)(Nc1cscn1)c1cc(F)c(O[C@H]2CCN(CC(F)(F)F)C[C@@H]2c2ccc(F)c(F)c2)cc1F` (racemic): the CLint scaled in data set [2] amounted to 14 mL/min/kg; in data set [3], 70 mL/min/kg. In data set [1], this compound gave an IC50 of 750 nM.
On to `O=S(=O)(Nc1ccncn1)c1cc(F)c(O[C@H]2CCN(CC(F)(F)F)C[C@@H]2c2ccccc2)cc1F` (racemic), for which, in data set [1], the IC50 was greater than 30000 nM.
On to `O=S(=O)(Nc1cccc(F)n1)c1cc(F)c(O[C@H]2CCN(CC(F)(F)F)C[C@@H]2c2ccccc2F)cc1F` (racemic), for which the CLint scaled stood at 17 mL/min/kg in data set [2] and 71 mL/min/kg in data set [3]. In addition, the IC50 in data set [1] came out at 680 nM.
For the compound `O=S(=O)(Nc1ncccn1)c1cc(F)c(O[C@H]2CCN(CC(F)(F)F)C[C@@H]2c2ccccc2)cc1F` (racemic), the IC50 in data set [1] is 7140 nM.
The same measure, in the same setting: the result for `O=S(=O)(Nc1cccc(F)n1)c1cc(F)c(OC2CCN(CC(F)(F)F)CC2c2ccc(F)c(F)c2)cc1F` (single isomer, unassigned; (+)) reads 430 nM; that for `O=S(=O)(Nc1cccc(F)n1)c1cc(F)c(O[C@H]2CCN(CC(F)(F)F)C[C@@H]2c2ccc(F)c(F)c2)c(F)c1` (stereo in doubt; (+)-6), 170 nM.

Values taken from ChEMBL document CHEMBL4811281, “Identification of aryl sulfonamides as novel and potent inhibitors of NaV1.5” (Bioorg Med Chem Lett, 2021).
